# What was measured:
# [1] = tested on: right ear of male rats (edema); test: Edema test, Tonelli method (croton oil ear edema); assay type: in vivo; settings: in pyridine/water/ether/croton oil irritant, 3 hours after application
# Experimental: The anti-inflammatory activity of the novel hydroxyphenylbutazone derivatives upon topical application can also be determined in accordance with the Tonelli method, as follows:
# The compound to be tested is dissolved in an irritant consisting of 4 parts of pyridine, 1 part of distilled water, 5 parts of ether, and 10 parts of a 4% ether croton oil solution. Felt strips attached to the insides of a slide tweezers are saturated with this text solution and pressed under slight pressure for 15 seconds onto the right ear of male rats weighing 100-160 g.
# The left ear remains untreated and serves as control. Three hours after application, the animals are sacrificed and disks of a size of 9 mm. are punched out of their ears. The weight difference between the disk from the right ear and that of the left ear is a measure for the thus-formed edema.
# The concentrations of effective agent (ED50) are determined which, when employed, cause a 50% reduction in the formation of edema.
# [2] = tested on: stripped skin on the backs of volunteers; test: vasoconstriction test (topical anti-inflammatory activity on stripped, hyperemic skin); assay type: in vivo; settings: for vasoconstriction, colour value (normal skin = 100, untreated stripped skin = 0): 50 mg topical; for activity in vasoconstriction test compared with hydroxyphenylbutazone: topical, Table I, in words
# Experimental: The topical anti-inflammatory activity of the novel hydroxyphenylbutazone derivatives can be determined employing the conventional vasoconstriction test as follows: On the backs of volunteers for the experiment, the stratum corneum was abraded by the application and tearing off of adhesive tape, conducted 20 times at the same spot, thus producing a pronounced hyperemia. Within the stripped area, respectively 50 mg of ointment containing in each case 0.1% and 0.01%, respectively, of the substance to be tested or of the reference substance in a water-oil base was applied on marked areas. The extent of the vasoconstriction was determined one, four, and eight hours after application. In order to evaluate the vasoconstriction, which is a representative syndrome of topical anti-inflammatory activity the color values of the untreated stripped skin and the treated stripped skin were determined and compred with the color value of the normal skin, wherein the color value of the normal skin was set to be equal to 100 and the color value of the untreated stripped skin was fixed at 0. Minor, moderate, and high-grade vasoconstriction was evaluated with values between 0 and 100. The results are shown in Table I below in which two compounds of this invention (III, IV) were compated with hydroxyphenylbutazone (I) and fluorocortolone.
Structure (SMILES),ED50 (concentration causing 50% reduction in the formation of edema) [1],"vasoconstriction, colour value (normal skin = 100, untreated stripped skin = 0) ([2]; 0.01% ointment, 4 hours)","vasoconstriction, colour value (normal skin = 100, untreated stripped skin = 0) ([2]; 0.01% ointment, 8 hours)","vasoconstriction, colour value (normal skin = 100, untreated stripped skin = 0) ([2]; 0.1% ointment, 4 hours)","vasoconstriction, colour value (normal skin = 100, untreated stripped skin = 0) ([2]; 0.1% ointment, 8 hours)",activity in vasoconstriction test compared with hydroxyphenylbutazone [2],"vasoconstriction, colour value (normal skin = 100, untreated stripped skin = 0) ([2]; 0.01% ointment, 1 hour)","vasoconstriction, colour value (normal skin = 100, untreated stripped skin = 0) ([2]; 0.1% ointment, 1 hour)"
"CCCCC1C(=O)N(c2ccccc2)N(c2ccc(OC(=O)CCCCCC(=O)Oc3ccc(N4C(=O)C(CCCC)C(=O)N4c4ccccc4)cc3)cc2)C1=O (stereo not shown) [IV, Pimelic Acid Bis[4-(4-butyl-3,5-dioxo-2-phenylpyrazolidinyl)-phenyl Ester]]",4200 µg/mL,44,49,65,67,substantially more active than hydroxyphenylbutazone,–,–
"C[C@@H]1C[C@H]2[C@@H]3C[C@H](F)C4=CC(=O)C=C[C@]4(C)[C@H]3[C@@H](O)C[C@]2(C)[C@H]1C(=O)CO [II, 6α-Fluoro-11β,21-dihydroxy-16α-methyl-1,4-pregnadiene-3,20-dione]",3400 µg/mL,65,85,75,85,–,15,35
"CCCCC1C(=O)N(c2ccccc2)N(c2ccc(OC(=O)CCCCC(=O)Oc3ccc(N4C(=O)C(CCCC)C(=O)N4c4ccccc4)cc3)cc2)C1=O (stereo not shown) [III, Adipic Acid Bis[4-(4-butyl-3,5-dioxo-2-phenylpyrazolidinyl)-phenyl Ester]]",2100 µg/mL,66,70,72,78,substantially more active than hydroxyphenylbutazone,34,44
"CCCCC1C(=O)N(c2ccccc2)N(c2ccc(O)cc2)C1=O (stereo not shown) [I, 4-Butyl-1-(4-hydroxyphenyl)-2-phenyl-3,5-pyrazolidinedione]",8000 µg/mL,25,24,35,33,–,18,15

# — patent publication US3968219A, “Hydroxy phenylbutazone derivatives and their preparation” (Schering Aktiengesellschaft, priority 1974, dated 1976)
